Where two headings read alike, the source gives them in different places.

For this series, the system named is DU145 human prostate cancer cells. In words: MTS viability assay in DU145 human prostate cancer cells. As to conditions: for cell viability (cytotoxicity), initial screening: 30 μM compound, DU145 cells (FIG. 8); for IC50: read-out: IC50 (cell viability). In general terms: Tetrazolium dyes change colour on reduction, which living cells bring about.
[1] abbreviates: 0.1 to 20 μM, 48 h, MTS, DU145 cells (FIGS. 9-12).

Procedure: An MTS assay is a colorimetric experimental method to determine the number of viable cells in cytotoxicity assays and utilizes 3-(4,5-dimethylthiazol-2-yl)-5-(3-carboxymethoxyphenyl)-2-(4-sulfophenyl)-2H-tetrazolium, inner salt (MTS).
The experimental setup was as follows: DU145 human prostate cancer cells were obtained from ATCC and cultured in RPMI-1640 medium containing 10% fetal bovine serum (FBS), 100 units/ml of penicillin, and 100 μg/ml streptomycin. All cells were maintained in a 5% CO2 atmosphere at 37° C. To determine the viability of the cells, MTS assays were performed as described by the supplier (Promega; Madison, Wis.). Briefly, cells (5,000/well) were seeded in 96-well plates and incubated overnight at 37° C. in 5% CO2. Cells were treated for 48 h with 30 μM of each compound for initial screenings.
MTS dye was added to each well for 1 h. Cell viability was determined by tetrazolium conversion to its formazan dye and absorbance of formazan was measured at 490 nm. Values are the mean ±SD. Each experiment was performed in quadruplicate.
Dimethyl sulfoxide (DMSO) was used as the vehicle control. MTS dye was added to each 96-well plate well for one hour. Cell viability was determined by tetrazolium conversion to its formazan dye and absorbance of formazan was measured at 490 nm using an automated ELISA plate reader. The production of formazan dye was directly proportional to the number of living cells.
DU145 cells (5,000 cells/each well) were treated in dose-dependent manner for 48 h. Then, MTS assay was performed with four samples for each experiment.

As a reminder, the IC50 is the midpoint of a concentration-inhibition curve. Take grossularine-1 [Compound 1]: the “cell viability (cytotoxicity), initial screening” value (48 h, MTS) is “complete loss of cell viability”. Besides, the IC50 under setting [1] worked out at 10.3 µM.

On to `CN(C)c1nc2c([nH]1)c(C(=N)c1c[nH]c3ccccc13)nc1[nH]c3ccccc3c12` [Compound 8], for which the IC50 (Homo sapiens, DU-145, 48 h) stood at 1.8 µM.

For “N,N-didesmethylgrossularine-1 [Compound 2]”, the “cell viability (cytotoxicity), initial screening” value (48 h, MTS) is “complete loss of cell viability”. Also, the IC50 under setting [1] came to 7.3 µM.

For the origin of these results see patent publication US7615638B2, “Synthesis of grossularines-1 and analogs thereof and method of use” (City of Hope, priority 2006, dated 2009).
